Source: patent US7572770B2, “Use of an interleukin 1 receptor antagonist and/or pyrrolidinedithiocarbamate for the treatment or prophylaxis of type 2 diabetes” (University of Zurich, priority 2002, dated 2009)

What was measured:
human islets β-cells = assay: β-cell apoptosis (TUNEL, caspase 3 activation) in human islets, leptin/siRNA study; assay type: cell-based; conditions: for cleaved caspase 3 level: leptin
Experimental: (§1) Islet isolation and cell culture. Islets were isolated from pancreases of ten organ donors at the Department of Surgery, University of Geneva Medical Center, as described (32-34). The islet purity was >95%, as judged by dithizone staining (if this degree of purity was not primarily achieved by routine isolation, islets were handpicked). […] For long-term in vitro studies, the islets were cultured on extracellular matrix-coated plates derived from bovine corneal endothelial cells (Novamed Ltd., Jerusalem, Israel), allowing the cells to attach to the dishes and spread, preserving their functional integrity (7;35). Islets were cultured in CMRL 1066 medium containing 100 U/ml penicillin, 100 μg/ml streptomycin and 10% fetal calf serum (Invitrogen Corporation, Paisley, U.K.), hereafter referred to as culture medium. Two days after plating, when most islets were attached and began to flatten, the medium was changed to culture medium containing 5.5, 11.1 or 33.3 mM glucose. In some experiments, islets were additionally cultured with 5, 10 or 500 nM rh leptin (PeproTech, London, UK), 500 ng/ml rh IL-1Ra (R&D Systems Inc., Minneapolis, Minn.) or 50 nM small interfering RNA (siRNA) as described below.
(§2) RNA interference. RNAs of 21 nucleotides, designed to target human IL-1Ra (5′AUCUGCAGAGGCCUCCGCAtt3′/5′UGCGGAGGCCUCUGCAGAUtt3′) and scrambled siRNA were synthesized by Ambion (Austin, Tex.). siRNAs were transfected using SiPortAmine™ according to the manufacturer's instructions (Ambion).
Western blot analysis. Human islets were maintained in culture medium in nonadherent plastic dishes. One day after isolation, the medium was changed and groups of 200 islets were incubated in culture medium containing 5.5 glucose with or without 10 or 500 nM leptin or 50 nM siRNA. At the end of the incubations, islets were washed in PBS, suspended in 40 μl sample buffer containing 125 mM Tris-HCl (pH 6.8), 4% SDS, 10% glycerol, 0.3% bromphenol blue, 1.8% β-mercaptoethanol and boiled for 5 min. Equivalent amounts of each treatment group were run on 15% SDS polyacrylamide gels. Proteins were electrically transferred to nitrocellulose filters and incubated with biotinylated goat anti-IL-1Ra, mouse anti-caspase 3 (which binds to both, procaspase-3 and activated caspase-3; Pharmingen, San Diego, Calif.), or mouse anti-actin (C-2; Santa Cruz Biotechnology Inc., Santa Cruz, Calif.) antibodies, followed by incubation with horseradish-peroxidase-linked anti-mouse (Santa Cruz Biotechnology Inc.) or streptavidin (Jackson). The emitted light was captured on X-ray film after adding Lumi-Light Western Blotting Substrate (Roche, Basel, Switzerland). As a marker, Kaleidoscope Prestained Standards (Bio Rad, Laboratories inc., Hercules, Calif.) was run in parallel. Between incubations, nitrocellulose membranes were stripped for 30 min at 50° C. in 40 ml of a solution containing 280 μl β-mercaptoethanol, 5 ml 0.5 M Tris-HCl (pH 6.8) and 10% SDS, and then washed for 1 h in Tris-buffered saline containing 0.10/0 Tween-20.
β-cell apoptosis. The free 3′-OH strand breaks resulting from DNA degradation were detected using the terminal deoxynucleotidyl transferase-mediated dUTP nick-end labeling (TUNEL) technique as described in detail (70;76;77). Thereafter, islets were incubated with guinea pig anti-insulin antibody as above, followed by detection using the streptavidin-biotin-peroxidase complex (Zymed Laboratories Inc., South San Francisco, Calif., USA). In parallel to the TUNEL reaction, apoptosis was confirmed by detection of caspase 3 activation as described above (Western blot analysis).

type I IL-1R = target: T1, type I IL-1R (Homo sapiens, UniProt P14778); conditions: read-out: Kd, binding to type I IL-1R; cited from earlier work
T1 sequence (P14778 18-569): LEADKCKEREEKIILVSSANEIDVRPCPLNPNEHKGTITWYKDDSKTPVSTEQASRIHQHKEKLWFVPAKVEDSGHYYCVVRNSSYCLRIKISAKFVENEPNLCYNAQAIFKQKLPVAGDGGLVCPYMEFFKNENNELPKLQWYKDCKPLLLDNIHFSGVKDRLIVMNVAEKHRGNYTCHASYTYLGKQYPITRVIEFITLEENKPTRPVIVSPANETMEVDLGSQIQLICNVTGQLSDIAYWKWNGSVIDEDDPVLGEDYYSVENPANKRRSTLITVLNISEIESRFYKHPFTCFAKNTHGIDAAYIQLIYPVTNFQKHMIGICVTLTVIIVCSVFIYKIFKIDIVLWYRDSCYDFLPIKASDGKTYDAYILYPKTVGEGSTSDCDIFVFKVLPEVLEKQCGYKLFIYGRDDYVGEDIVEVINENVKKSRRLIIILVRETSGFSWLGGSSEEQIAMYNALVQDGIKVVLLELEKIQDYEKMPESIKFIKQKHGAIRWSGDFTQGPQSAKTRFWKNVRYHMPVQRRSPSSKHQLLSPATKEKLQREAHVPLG

human islets = assay: Insulin release and content of human islets, leptin/siRNA study; assay type: cell-based
Experimental: as §1, §2
Insulin release and content. To determine acute insulin release in response to glucose stimulation, islets were washed in Kreb's ringer bicarbonate buffer (KRB-Hepes, pH 7.4: 4.8 mM KCl, 134 mM NaCl, 5 mM NaHCO3, 1.2 mM MgSO4, 1.2 mM KH2PO4, 1 mM CaCl2, 0.5% BSA, 10 mM HEPES) containing 3.3 mM glucose and pre-incubated for 30 min in the same buffer. The KRB was then discarded and replaced by fresh buffer containing 3.3 mM glucose for 1 h for basal secretion, followed by an additional 1 h of incubation in KRB containing 16.7 mM glucose. Supernatants were collected and frozen for insulin assays. Thereafter, islets were washed with PBS and extracted with 0.18 N HCl in 70% ethanol for 24 h at 4° C. The acid-ethanol extracts were collected for determination of insulin content. Insulin was determined by a human insulin RIA kit (CIS bio international, Gif-Sur-Yvette, France).

[1] = leptin plus exogenous rh IL-1Ra 500 ng/ml
[2] = plus 500 ng/ml exogenous rhIL-1Ra

Substance | leptin-induced β-cell apoptosis (human islets β-cells; [1]) | β-cell apoptosis induced by 33.3 mM glucose alone (human islets β-cells; [2]) | β-cell apoptosis induced by 33.3 mM glucose and siIL-1Ra (human islets β-cells; [2]) | siIL-1Ra-induced DNA fragmentation (human islets β-cells; siIL-1Ra plus 500 ng/ml exogenous rhIL-1Ra) | Kd (type I IL-1R) [nM] | β-cell function and insulin content (human islets; [1]) | loss of acute glucose-stimulated insulin release by high glucose and/or siIL-1Ra (human islets; plus exogenous rh IL-1Ra) | insulin content (human islets; siIL-1Ra and/or high glucose plus rh IL-1Ra) | glucose stimulation of insulin release (human islets; siIL-1Ra at 5.5 mM glucose, co-incubation with exogenous rh IL-1Ra) | number of TUNEL-positive β-cells (human islets β-cells; 10 nM leptin, 4 days) | 33.3 mM glucose-induced apoptosis (human islets β-cells; leptin plus 33.3 mM glucose, 4 days) | cleaved caspase 3 level (human islets β-cells; 15 hours) | cleaved caspase 3 level (human islets β-cells; 48 hours) | decrease of chronic insulin secretion during the culture period (human islets; leptin, 4 days) [%] | glucose-stimulated insulin secretion (human islets; leptin, 4 days, 5.5 mM glucose) | insulin content (human islets; leptin, 4 days, 5.5 mM glucose)
Interleukin 1 receptor antagonist [IL-1Ra] | prevented leptin-induced β-cell apoptosis | protected the β-cells from apoptosis | partially | prevented the effect of siIL-1Ra on DNA fragmentation | 0.2 | restored β-cell function and insulin content | partially prevented those effects | partially restored | restored glucose stimulation |  |  |  |  |  |  | 
leptin: rh leptin (PeproTech); protein encoded by the ob gene |  |  |  |  |  |  |  |  |  | increased the number of TUNEL-positive β-cells | enhanced 33.3 mM glucose-induced apoptosis | did not change baseline cleaved caspase 3 level | an increase became apparent | 41.65 | impaired glucose-stimulated insulin secretion | decreased insulin content
